Holding throughout (assay): Glasshouse assay for herbicidal activity (pre- and post-emergence), percentage phytotoxicity
What all share (format): in vivo

One assay concerns Lolium perenne (LOLPE). The following applies: Lolium perenne, 250 g/ha, visual assessment (100%=total damage, 0%=no damage). In outline: (§1)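 Visual phytotoxicity score, 0% = undamaged to 100% = total kill, read 20 days after treatment for PRE and 15 days for POST. Pots of standard soil; treatment at day 1 (PRE) or roughly day 12 (POST). Glasshouse: 16 h photoperiod, 65% RH, 24/18 or 20/16 °C by climate type.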

Another assay concerns Avena fatua (AVEFA). The following applies: Avena fatua, 250 g/ha, visual assessment (100%=total damage, 0%=no damage). In outline: as §1
The subject of assay [1] is Alopecurus myosuroides (ALOMY). The following applies: Alopecurus myosuroides, 250 g/ha, visual assessment (100%=total damage, 0%=no damage). In outline:
as §1

The test system of assay [2] is Echinochloa crus-galli (ECHCG). The following applies: Echinochloa crus-galli, 250 g/ha, visual assessment (100%=total damage, 0%=no damage). In outline: as §1
The mark [3] stands for this setting: post-emergence, 360 h, post-emergence, 15 DAA, read-out: Post-emergence herbicidal activity (percentage phytotoxicity) LOLPE POST.
[4] abbreviates: pre-emergence, 480 h, pre-emergence, 20 DAA, read-out: Pre-emergence herbicidal activity (percentage phytotoxicity) LOLPE PRE.
The mark [5] stands for this setting: post-emergence, 360 h, post-emergence, 15 DAA, read-out: Post-emergence herbicidal activity (percentage phytotoxicity) AVEFA POST.
Setting [6] is: pre-emergence, 480 h, pre-emergence, 20 DAA, read-out: Pre-emergence herbicidal activity (percentage phytotoxicity) AVEFA PRE.
Setting [7] is: post-emergence, 360 h, post-emergence, 15 DAA, read-out: Post-emergence herbicidal activity (percentage phytotoxicity) ALOMY POST.
Setting [8] is: pre-emergence, 480 h, pre-emergence, 20 DAA, read-out: Pre-emergence herbicidal activity (percentage phytotoxicity) ALOMY PRE.
Where [9] appears, read: post-emergence, 360 h, post-emergence, 15 DAA, read-out: Post-emergence herbicidal activity (percentage phytotoxicity) ECHCG POST.
[10] abbreviates: pre-emergence, 480 h, pre-emergence, 20 DAA, read-out: Pre-emergence herbicidal activity (percentage phytotoxicity) ECHCG PRE.

Like-named read-outs stand apart in the source and are kept apart here.

Turning to `Cc1ccnc(CNC(=O)CC2CC(=O)C(c3c(C)cc(C)cc3C)C2=O)c1` (stereo not shown) [Compound B66], the pest or weed control at 250 g/ha was determined as 90% with Lolium perenne (LOLPE) (setting [3]); 90% in the assay on Lolium perenne (LOLPE) (setting [4]); 80% with Avena fatua (AVEFA) (setting [5]); 0% with Avena fatua (AVEFA) (setting [6]); 90% in assay [1] (setting [7]); 90% in assay [1] (setting [8]). Also, the figures for the pest or weed control at 250 g/ha in assay [2] (setting [9]) and in assay [2] (setting [10]) were 80% and 90%, respectively.
For the compound `Cc1cc(C)c(C2C(=O)CC(CC(=O)NCc3ncccc3C)C2=O)c(C)c1` (stereo not shown) [Compound B67], the pest or weed control at 250 g/ha turned out to be 70% with Lolium perenne (LOLPE) (setting [3]); 90% with Lolium perenne (LOLPE) (setting [4]); 80% with Avena fatua (AVEFA) (setting [5]); 10% in the assay on Avena fatua (AVEFA) (setting [6]); 90% in assay [1] (setting [7]); 90% in assay [1] (setting [8]). For the same compound, the pest or weed control at 250 g/ha in assay [2] (setting [9]) turned out to be 80%; in assay [2] (setting [10]), 90%.
`Cc1cc(C)c(C2C(=O)CC(CC(=O)NCc3cccc(C)n3)C2=O)c(C)c1` (stereo not shown) [Compound B68]: the pest or weed control at 250 g/ha with Lolium perenne (LOLPE) (setting [3]) was found to be 70%; in the assay with Lolium perenne (LOLPE) (setting [4]) it was 80%; in the assay with Avena fatua (AVEFA) (setting [5]), 80%; in the assay with Avena fatua (AVEFA) (setting [6]), 10%; in assay [1] (setting [7]), 90%; in assay [1] (setting [8]) it was 80%. In addition, the pest or weed control at 250 g/ha in assay [2] (setting [9]) turned out to be 70%; in assay [2] (setting [10]) it was 80%.
`Cc1cc(C)c(C2C(=O)CC(CC(=O)NCc3ccc(C#N)cc3)C2=O)c(C)c1` (stereo not shown) [Compound B69]: the pest or weed control at 250 g/ha with Lolium perenne (LOLPE) (setting [3]) was 80%; with Lolium perenne (LOLPE) (setting [4]), 90%; with Avena fatua (AVEFA) (setting [5]), 100%; with Avena fatua (AVEFA) (setting [6]), 80%; in assay [1] (setting [7]) it was 40%; in assay [1] (setting [8]), 50%. The figures for the pest or weed control at 250 g/ha in assay [2] (setting [9]) and in assay [2] (setting [10]) were 80% and 90%, respectively.
Turning to `Cc1cc(-c2ncc(F)cc2F)cc(C)c1C1C(=O)CC(CC(=O)NCc2cccc(F)c2)C1=O` (stereo not shown) [Compound B70], the pest or weed control at 250 g/ha is 100% with Lolium perenne (LOLPE) (setting [3]); 90% with Lolium perenne (LOLPE) (setting [4]); 100% in the assay with Avena fatua (AVEFA) (setting [5]); 80% in the assay with Avena fatua (AVEFA) (setting [6]); 100% in assay [1] (setting [7]); 80% in assay [1] (setting [8]). The pest or weed control at 250 g/ha in assay [2] (setting [9]) and in assay [2] (setting [10]) was 100% throughout.
Turning to `Cc1cc(-c2ncc(F)cc2F)cc(C)c1C1C(=O)CC(CC(=O)NCc2cc(F)cc(F)c2)C1=O` (stereo not shown) [Compound B71], the pest or weed control at 250 g/ha with Lolium perenne (LOLPE) (setting [3]) came to 100%; in the assay on Lolium perenne (LOLPE) (setting [4]) it was 90%; in the assay with Avena fatua (AVEFA) (setting [5]) it was 100%; in the assay with Avena fatua (AVEFA) (setting [6]) it was 90%; in assay [1] (setting [7]) it was 100%; in assay [1] (setting [8]) it was 90%. Moreover, the pest or weed control at 250 g/ha in assay [2] (setting [9]) and in assay [2] (setting [10]) was 100% in each case.
On to `Cc1cc(-c2ncc(F)cc2F)cc(C)c1C1C(=O)CC(CC(=O)NCc2ccc(F)cc2)C1=O` (stereo not shown) [Compound B72], for which the pest or weed control at 250 g/ha in the assay on Lolium perenne (LOLPE) (setting [3]) was found to be 100%; in the assay with Lolium perenne (LOLPE) (setting [4]) it was 100%; in the assay on Avena fatua (AVEFA) (setting [5]), 100%; in the assay with Avena fatua (AVEFA) (setting [6]), 70%; in assay [1] (setting [7]), 100%; in assay [1] (setting [8]) it was 100%. In addition, the pest or weed control at 250 g/ha in assay [2] (setting [9]) and in assay [2] (setting [10]) was 100% throughout.
As to `Cc1cc(-c2ncc(F)cc2F)cc(C)c1C1C(=O)CC(CC(=O)NCc2ccc(F)c(F)c2)C1=O` (stereo not shown) [Compound B73], the pest or weed control at 250 g/ha was found to be 100% in the assay on Lolium perenne (LOLPE) (setting [3]); 90% with Lolium perenne (LOLPE) (setting [4]); 100% in the assay on Avena fatua (AVEFA) (setting [5]); 90% in the assay on Avena fatua (AVEFA) (setting [6]); 100% in assay [1] (setting [7]); 90% in assay [1] (setting [8]). In addition, the pest or weed control at 250 g/ha in assay [2] (setting [9]) and in assay [2] (setting [10]) was 100% throughout.
On to `Cc1cc(-c2ncccc2Cl)cc(C)c1C1C(=O)CC(CC(=O)NC(C)(C)C)C1=O` (stereo not shown) [Compound B74], for which the pest or weed control at 250 g/ha with Lolium perenne (LOLPE) (setting [3]) turned out to be 50%; in the assay with Lolium perenne (LOLPE) (setting [4]), 30%; in the assay with Avena fatua (AVEFA) (setting [5]), 60%; in the assay with Avena fatua (AVEFA) (setting [6]), 0%; in assay [1] (setting [7]), 60%; in assay [1] (setting [8]), 10%. Besides, the pest or weed control at 250 g/ha in assay [2] (setting [9]) amounted to 60%; in assay [2] (setting [10]), 10%.
As to `Cc1cc(-c2ccc(C#N)cn2)cc(C)c1C1C(=O)CC(CC(=O)NC(C)(C)C)C1=O` (stereo not shown) [Compound B75], the pest or weed control at 250 g/ha amounted to 100% in the assay on Lolium perenne (LOLPE) (setting [3]); 90% with Lolium perenne (LOLPE) (setting [4]); 100% in the assay with Avena fatua (AVEFA) (setting [5]); 90% in the assay on Avena fatua (AVEFA) (setting [6]); 100% in assay [1] (setting [7]); 100% in assay [1] (setting [8]). Also, the pest or weed control at 250 g/ha in assay [2] (setting [9]) and in assay [2] (setting [10]) was 100% in each case.
In the case of `Cc1cc(C)c(C2C(=O)CC(CC(=O)NCC(CF)CF)C2=O)c(C)c1` (stereo not shown) [Compound B76], the pest or weed control at 250 g/ha worked out at 80% with Lolium perenne (LOLPE) (setting [3]); 90% with Lolium perenne (LOLPE) (setting [4]); 80% in the assay with Avena fatua (AVEFA) (setting [5]); 70% in the assay on Avena fatua (AVEFA) (setting [6]); 80% in assay [1] (setting [7]); 90% in assay [1] (setting [8]). Also, the pest or weed control at 250 g/ha stood at 80% in assay [2] (setting [9]) and 90% in assay [2] (setting [10]).
Regarding `Cc1cc(-c2ncc(F)cc2F)cc(C)c1C1C(=O)CC(CC(=O)NCC2CC2(Cl)Cl)C1=O` (stereo not shown) [Compound B77], the pest or weed control at 250 g/ha in the assay on Lolium perenne (LOLPE) (setting [3]) stood at 100%; with Lolium perenne (LOLPE) (setting [4]) it was 100%; in the assay with Avena fatua (AVEFA) (setting [5]) it was 100%; with Avena fatua (AVEFA) (setting [6]), 90%; in assay [1] (setting [7]), 100%; in assay [1] (setting [8]), 90%. Besides, the pest or weed control at 250 g/ha in assay [2] (setting [9]) and in assay [2] (setting [10]) was 100% throughout.
Turning to `Cc1cc(C)c(C2C(=O)CC(CC(=O)NC3(C4CC4)CC3)C2=O)c(C)c1` (stereo not shown) [Compound B78], the pest or weed control at 250 g/ha in the assay with Lolium perenne (LOLPE) (setting [3]) worked out at 80%; in the assay on Lolium perenne (LOLPE) (setting [4]) it was 90%; in the assay on Avena fatua (AVEFA) (setting [5]), 80%; in the assay with Avena fatua (AVEFA) (setting [6]) it was 40%; in assay [1] (setting [7]), 80%; in assay [1] (setting [8]), 80%. The pest or weed control at 250 g/ha in assay [2] (setting [9]) and in assay [2] (setting [10]) was 90% throughout.
With `CCCN(CC1CC1)C(=O)CC1CC(=O)C(c2c(C)cc(C)cc2C)C1=O` (stereo not shown) [Compound B79], the pest or weed control at 250 g/ha in the assay with Lolium perenne (LOLPE) (setting [3]) stood at 80%; with Lolium perenne (LOLPE) (setting [4]), 80%; with Avena fatua (AVEFA) (setting [5]) it was 10%; in the assay with Avena fatua (AVEFA) (setting [6]), 0%; in assay [1] (setting [7]), 60%; in assay [1] (setting [8]) it was 60%. Besides, the pest or weed control at 250 g/ha was found to be 60% in assay [2] (setting [9]) and 80% in assay [2] (setting [10]).

(Values after patent US10206394B2, “Herbicidal compounds” (Syngenta Participations AG, priority 2014, dated 2019).)
